The values below come from patent publication US20260306644A1, “ANTIBODY RECRUITING MOLECULES FOR THE TREATMENT OF CORONAVIRUS DISEASE-19” (priority 2023, published 2026).

“And” between values parts separate entries of the source, which are not always exact repeats. Equal entries are not always repeated. Where two headings read alike, the source gives them in different places. Positions of bridges follow the written chain, without caps; N, C: chain ends. Non-standard residues stand in square brackets, D forms with d. Residues, ends and D or L forms follow the SMILES beside them. No end group written: not given here. *: point of attachment. Biotin = O=C1N[C@H]2[C@H](CS[C@H]2CCCCC(=O)*)N1; PEG4 = NCCOCCOCCOCCOCCC(=O)O; Nle = CCCC[C@H](N)C(=O)O; Aib = CC(C)(N)C(=O)O

Broadly, the EC50 is the concentration giving half of the maximal effect. The IC50 is the concentration that inhibits the measured activity by half. The low end stands for greater potency, the high end for weaker potency.

One experiment concerns the target SARS-CoV-2 Spike protein (Severe acute respiratory syndrome coronavirus 2, UniProt P0DTC2). In words: Ternary binding of SARS-CoV-2 Spike protein (293T cells expressing Spike-GFP, IgG-AF647, flow cytometry). The following applies: IgG-AF647 10 μg/ml, repeat values/batches listed separately. It counts as cell-based. Background: Flow cytometry measures light scatter and fluorescence of single cells or particles in a stream.

For experiment [1], the target named is T1, SARS-CoV-2 Spike Glycoprotein RBD protein (Severe acute respiratory syndrome coronavirus 2, UniProt P0DTC2).
T1 construct: SARS-CoV-2 (COVID-19) S Protein RBD, His Tag; purchased Acro Biosystems SPD-C52H3
In words: Binding of biotinylated ligands to SARS-CoV-2 Spike Glycoprotein RBD protein by ELISA. On the procedure:
Materials. The binding affinity of biotinylated ligands to SARS-CoV-2 Spike Glycoprotein RBD protein was determined by ELISA. The binding assay was performed using the following steps: (1) assay plates (PE B&W Isoplate 96-well Flat Bottom, High Bindi-g - Perkin Elmer 6005580) were coated with 100 ul Anti-6× His tag antibody (Anti-6× His tag Antibody; Abcam ab15149, Mouse Monoclonal; Cambridge, UK) at 5 μg/ml in PBS, incubate 1 hour at 37° C. without shaking. The plates were washed (each wash step of this assay includes four 1-minute washes with 200 ul phosphate-buffered saline-0.05% (w/v) Tween® 20 detergent (PBST)). (2) Plates were blocked with 200 ul PBST-5% BSA (PBSTB; American Bio AB01088-00100; Canton, MA), for an hour at room temperature on a plate shaker (400 rpm). The plates were washed. […] The plates were washed. (4) Ligands were added, 100 ul at a concentration range of 0.1 mM to 100 nM in PBSTB, and incubated for 1 hour at room temperature on a plate shaker (200 RPM). The plates were washed. (5) NeutrAvidin™-HRP (Invitrogen 31030; Waltham, MA) is added, 100 ul at a dilution of 1:20,000 in PBSTB, and incubated for 1 hour at room temperature on a plate shaker (200 RPM). The plates were washed. (6) SuperSignal ELISA Pico Chemiluminescent Substrate (Thermo Scientific 37069; Waltham, MA) was added and incubated for 5 minutes at room temperature on a plate shaker (200 RPM).
For orientation: An ELISA detects its analyte on a solid surface through an enzyme-linked reagent.

The subject of experiment [2] is live SARS-CoV-2 Virus (wildtype). In words: Neutralization of live SARS-CoV-2 virus, wildtype (Vero E6 cells, nucleoprotein ELISA). It counts as cell-based. Particulars: live virus neutralization, isolate Seattle WA (IITRI), Vero E6.
Experiment [3] concerns the target T2, SARS-CoV-2 Spike A (wild-type) (Severe acute respiratory syndrome coronavirus 2, UniProt P0DTC2).
T2 construct: purchased Meso Scale Diagnostics, LLC V-PLEX SARS-CoV-2 Panel 13 (ACE2) Kit / Panel 23 (ACE2) Kit
Put plainly: MSD ACE2 competition assay (inhibition of Spike binding with ACE2, ECL), A (wild-type). Particulars: IC50 Wild Type, Wild Type Spike.

The mark [4] stands for this setting: 293T cells expressing Spike-GFP, read-out: SARS-CoV-2 Ternary binding EC50.
[5] abbreviates: ELISA, biotinylated ligands, Spike RBD, read-out: ELISA SARS-CoV-2 Spike RBD Protein Binding EC50.

With `CC[C@H](C)[C@H](NC(=O)[C@H](CC(C)C)NC(=O)[C@H](CC(=O)O)NC(=O)[C@H](CO)NC(=O)[C@@H](NC(=O)[C@H](CCCNC(=N)N)NC(=O)[C@H](CCSC)NC(=O)[C@H](CO)NC(=O)[C@H](C)NC(=O)[C@H](CCC(=O)O)NC(=O)[C@H](C)NC(=O)[C@H](Cc1c[nH]cn1)NC(=O)CNC(=O)[C@H](CC(C)C)NC(=O)[C@H](CCC(=O)O)NC(=O)[C@H](CC(=O)O)NC(=O)[C@H](CC(C)C)NC(=O)[C@H](CC(C)C)NC(=O)[C@H](CCCNC(=N)N)NC(=O)[C@H](CCSC)NC(=O)[C@@H](NC(=O)[C@H](CCC(=O)O)NC(=O)[C@H](Cc1ccc(O)cc1)NC(=O)[C@@H](NC(=O)[C@H](CCCCN)NC(=O)[C@H](CCC(N)=O)NC(=O)[C@H](CC(C)C)NC(=O)[C@@H](NC(=O)[C@H](Cc1c[nH]c2ccccc12)NC(=O)[C@H](CCC(=O)O)NC(=O)[C@H](CCCCN)NC(=O)[C@H](CC(=O)O)NC(=O)[C@H](CO)NC(=O)C(C)(C)NC(=O)CCOCCOCCOCCOCCNC(=O)CCCC[C@@H]1SC[C@@H]2NC(=O)N[C@@H]21)[C@@H](C)CC)[C@@H](C)CC)[C@@H](C)CC)C(C)C)C(=O)N[C@@H](Cc1ccc(O)cc1)C(=O)N[C@@H](CCC(=O)O)C(=O)N[C@@H](Cc1ccccc1)C(=O)N[C@@H](CCSC)C(=O)N[C@@H](CCCCN)C(=O)N[C@@H](CCCCN)C(=O)N[C@H](Cc1ccccc1)C(=O)O` [Compound 216], the EC50 stood at 0.46 nM at SARS-CoV-2 Spike protein (setting [4]) and 1.11 nM in experiment [1] (setting [5]).

`CC[C@H](C)[C@H](NC(=O)[C@H](CC(C)C)NC(=O)[C@H](CC(=O)O)NC(=O)[C@H](CO)NC(=O)[C@@H](NC(=O)[C@H](CCCNC(=N)N)NC(=O)[C@H](CCSC)NC(=O)[C@H](CO)NC(=O)[C@H](C)NC(=O)[C@@H]1CCCN1C(=O)[C@H](C)NC(=O)[C@H](Cc1c[nH]cn1)NC(=O)CNC(=O)[C@H](CC(C)C)NC(=O)[C@H](CCC(=O)O)NC(=O)[C@H](CC(=O)O)NC(=O)[C@H](CC(C)C)NC(=O)[C@H](CC(C)C)NC(=O)[C@H](CCCNC(=N)N)NC(=O)[C@H](CCSC)NC(=O)[C@@H](NC(=O)[C@H](CCC(=O)O)NC(=O)[C@H](Cc1ccc(O)cc1)NC(=O)[C@@H](NC(=O)[C@H](CCCCN)NC(=O)[C@H](CCC(N)=O)NC(=O)[C@H](CC(C)C)NC(=O)[C@@H](NC(=O)[C@H](Cc1c[nH]c2ccccc12)NC(=O)[C@H](CCC(=O)O)NC(=O)[C@H](CCCCN)NC(=O)[C@H](CC(=O)O)NC(=O)[C@H](CO)NC(=O)CCOCCOCCOCCOCCNC(=O)CCCC[C@@H]1SC[C@@H]2NC(=O)N[C@@H]21)[C@@H](C)CC)[C@@H](C)CC)[C@@H](C)CC)C(C)C)C(=O)N[C@@H](Cc1ccc(O)cc1)C(=O)N[C@@H](CCC(=O)O)C(=O)N[C@@H](Cc1ccccc1)C(=O)N[C@@H](CCSC)C(=O)N[C@@H](CCCCN)C(=O)N[C@@H](CCCCN)C(=O)NCC(N)=O` [Compound 193] ({Biotin-PEG4}-SDKEWILQKIYEIMRLLDELGHAPASMRVSDLIYEFMKKG-NH2): the EC50 at SARS-CoV-2 Spike protein (setting [4]) is 2.3 nM and 0.24 nM; in experiment [1] (setting [5]), 4.6 nM.

The molecule “DKEWILQKIYEIMRLLDELGHAEASMRVSDLIYEFMKKGDERLLEEAERLLEEVERDCAWHLGELVWCT (disulfide 58-68) [Compound 111]” came in with an EC50 in experiment [2] of 0.14 nM. In addition, in experiment [3], the IC50 amounted to 1.39 nM.

In the case of “{Biotin-PEG4}-[Aib]SDKEWILQKIYEIMRLLDELGHAEAS[Nle]RVSDLIY[Aib]FMK[Aib]G [Compound 218]”, the EC50 at SARS-CoV-2 Spike protein (setting [4]) was found to be 0.1 nM; in experiment [1] (setting [5]), 2.38 nM.

Regarding `CC[C@H](C)[C@H](NC(=O)[C@H](CC(C)C)NC(=O)[C@H](CC(=O)O)NC(=O)[C@H](CO)NC(=O)[C@@H](NC(=O)[C@H](CCCNC(=N)N)NC(=O)[C@H](CCSC)NC(=O)[C@H](CO)NC(=O)[C@H](C)NC(=O)[C@@H]1CCCN1C(=O)[C@H](C)NC(=O)[C@H](Cc1c[nH]cn1)NC(=O)CNC(=O)[C@H](CC(C)C)NC(=O)[C@H](CCC(=O)O)NC(=O)[C@H](CC(=O)O)NC(=O)[C@H](CC(C)C)NC(=O)[C@H](CC(C)C)NC(=O)[C@H](CCCNC(=N)N)NC(=O)[C@H](CCSC)NC(=O)[C@@H](NC(=O)[C@H](CCC(=O)O)NC(=O)[C@H](Cc1ccc(O)cc1)NC(=O)[C@@H](NC(=O)[C@H](CCCCN)NC(=O)[C@H](CCC(N)=O)NC(=O)[C@H](CC(C)C)NC(=O)[C@@H](NC(=O)[C@H](Cc1c[nH]c2ccccc12)NC(=O)[C@H](CCC(=O)O)NC(=O)[C@H](CCCCN)NC(=O)[C@H](CC(=O)O)NC(=O)CCOCCOCCOCCOCCNC(=O)CCCC[C@@H]1SC[C@@H]2NC(=O)N[C@@H]21)[C@@H](C)CC)[C@@H](C)CC)[C@@H](C)CC)C(C)C)C(=O)N[C@@H](Cc1ccc(O)cc1)C(=O)N[C@@H](CCC(=O)O)C(=O)N[C@@H](Cc1ccccc1)C(=O)N[C@@H](CCSC)C(=O)N[C@@H](CCCCN)C(=O)N[C@@H](CCCCN)C(=O)NCC(=O)N[C@@H](CC(=O)O)C(=O)N[C@@H](CCC(=O)O)C(=O)N[C@@H](CCCNC(=N)N)C(=O)N[C@@H](CC(C)C)C(=O)N[C@@H](CC(C)C)C(=O)N[C@@H](CCC(=O)O)C(=O)N[C@@H](CCC(=O)O)C(=O)N[C@@H](C)C(=O)N[C@@H](CCC(=O)O)C(=O)N[C@@H](CCCNC(=N)N)C(=O)N[C@@H](CC(C)C)C(=O)N[C@@H](CC(C)C)C(=O)N[C@@H](CCC(=O)O)C(=O)N[C@@H](CCC(=O)O)C(=O)N[C@H](C(=O)N[C@@H](CCC(=O)O)C(=O)N[C@@H](CCCNC(=N)N)C(N)=O)C(C)C` [Compound 187], the EC50 is 0.07 nM at SARS-CoV-2 Spike protein (SARS-CoV-2 Ternary binding EC50, 293T cells expressing Spike-GFP) and 0.37 nM in experiment [1].

As to `CCCC[C@H](NC(=O)[C@H](CCC(=O)O)NC(=O)[C@H](CC(=O)O)NC(=O)[C@H](CC(C)C)NC(=O)[C@H](CC(C)C)NC(=O)[C@H](CCCNC(=N)N)NC(=O)[C@H](CCSC)NC(=O)[C@@H](NC(=O)[C@H](CCC(=O)O)NC(=O)[C@H](Cc1ccc(O)cc1)NC(=O)[C@@H](NC(=O)[C@H](CCCCN)NC(=O)[C@H](CCC(N)=O)NC(=O)[C@H](CC(C)C)NC(=O)[C@@H](NC(=O)[C@H](Cc1c[nH]c2ccccc12)NC(=O)[C@H](CCC(=O)O)NC(=O)[C@H](CCCCN)NC(=O)[C@H](CC(=O)O)NC(=O)CCOCCOCCOCCOCCNC(=O)CCCC[C@@H]1SC[C@@H]2NC(=O)N[C@@H]21)[C@@H](C)CC)[C@@H](C)CC)[C@@H](C)CC)C(=O)N[C@H](Cc1c[nH]cn1)C(=O)N[C@@H](Cc1c[nH]cn1)C(=O)N[C@@H](C)C(=O)N[C@@H](CCC(=O)O)C(=O)N[C@@H](C)C(=O)N[C@@H](CO)C(=O)N[C@@H](CCSC)C(=O)N[C@@H](CCCNC(=N)N)C(=O)N[C@H](C(=O)N[C@@H](CO)C(=O)N[C@@H](CC(=O)O)C(=O)N[C@@H](CC(C)C)C(=O)N[C@H](C(=O)N[C@@H](Cc1ccc(O)cc1)C(=O)N[C@@H](CCC(=O)O)C(=O)N[C@@H](Cc1ccccc1)C(=O)N[C@@H](CCSC)C(=O)N[C@@H](CCCCN)C(=O)N[C@@H](CCCCN)C(=O)NCC(=O)O)[C@@H](C)CC)C(C)C` [Compound 222], the figures for the EC50 (at SARS-CoV-2 Spike protein (setting [4]); in experiment [1] (setting [5])) were 0.02 nM and 0.79 nM, respectively.
